Assay results published in patent US7902361B2, “Pyrimidin-4-yl-3, 4-thione compounds and their use in therapy” (Cyclacel Limited, priority 2003, dated 2011).
Where two headings read alike, the source gives them in different places.

Key:
CDK9/cyclin T1 = CDK9/cyclin T1 (Homo sapiens, UniProt P50750); experiment: Kinase assay CDK9/cyclin T1; assay type: biochemical; conditions: Ki calculated (Cheng-Prusoff) from experimentally determined IC50 and Km,ATP; read-out: Kinase Inhibition Ki CDK9 - cyclin T1
Method in brief: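 Radiometric filter assays used recombinant kinases or complexes (2-4 μg) with appropriate polypeptide substrates in pH 7.4 β-glycerophosphate/MOPS buffer. Reactions were started with 15 mM MgCl2 and 100 μM ATP containing [γ-32P]-ATP and run at 30° C. Phosphate incorporated into substrate was counted by scintillation after washing.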

GSK3β = molecular target: T1, GSK3β (Homo sapiens, UniProt P49841); experiment: GSK3β in vitro kinase assay; assay type: biochemical; conditions: recombinant human GSK3β, 100 μM ATP
T1 construct: purchased New England Biolabs
Method in brief: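 Radiometric filter-binding assay with GSK3β (1.5 units), 200 μM CREB phosphopeptide, 100 μM ATP plus [γ-32P]ATP, in 20 mM Tris HCl pH7.5, 5 mM DTT, 15 mM MgCl2, 2% DMSO; 30 min at 30° C, stopped with phosphoric acid. 32P incorporation counted by scintillation; IC50 from 10-point titration.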

GSK3α = molecular target: T2, GSK3α (Homo sapiens, UniProt P49840); experiment: GSK3α in vitro kinase assay; assay type: biochemical; conditions: recombinant human GSK3α, 100 μM ATP
T2 construct: purchased Upstate
Protocol: Both isoforms of GSK3 (α and β) are involved in the regulation of glycogen synthase activity—key enzyme in the glycogen metabolism. The inhibitory potency of example compounds was determined using in vitro kinase assays with recombinant human GSK3-α and -β; the IC50 values determined are presented in Table 9.
A 10-point titration was set up to determine the IC50 values of selected example compounds against GSK3β. Assays were performed using 96-well microtiter plates with a final volume of 25 μL per well. Each assay contained 1.5 units of GSK3β(New England Biolabs), 200 μM CREB phosphopeptide ([…]pSYR, Alta Biosciences), 20 mM Tris HCl pH7.5, 5 mM DTT, 15 mM MgCl2 supplemented with 100 μM ATP and 0.5 μCi of [γ-^32P] ATP plus or minus inhibitor in 2% DMSO. Assays were carried out for 30 minutes at 30° C. before stopping the reaction by the addition of an equal volume of 75 mM aqueous phosphoric acid. Samples were then spotted onto a p81 filterplate (Whatman) and a vacuum was applied. Wells were washed 3 times with 200 μL of dilute aqueous phosphoric acid before the addition of 50 μL Microscint 40 per well. Incorporation of radioactivity was determined on a Topcount microplate scintillation counter (Packard).
GSK3α (Upstate) was assayed exactly as described above except that 1 ng of enzyme was added per assay point.

DYRK1A = molecular target: T3, DYRK1A (Homo sapiens, UniProt Q13627); experiment: DYRK1A in vitro kinase assay; assay type: biochemical; conditions: recombinant human DYRK1A, 100 μM ATP
T3 construct: purchased Upstate
Description: Dual specificity tyrosine phosphorylation regulated kinase 1A (DYRK1A) has been proposed, amongst other functions, to play a role in the regulation of glycogen metabolism in a way similar to GSK3. Some of the example compounds of the present invention were screened against recombinant human DYRK1A in vitro and the determined IC50 values are shown in Table 9. According to our current knowledge inhibition of DYRK1A will have additional positive effect on stimulation of glycogen synthase.
A 10-point titration was set up to determine the IC50 values of selected example compounds against DYRK1A. Assays were performed using 96-well microtiter plates and a final volume of 25 μL/well. Each assay contained 2.3 milliunits of DYRK1A (Upstate), 50 μM Woodtide peptide ([…], Upstate), 20 mM Tris HCl pH 8.0, 10 mM DTT, 5 mM EGTA, 1 mM NaVO3, 31 mM β-glycerophosphate, 15 mM MgCl2 supplemented with 100 μM ATP and 0.5 μCi of [γ-^32P] ATP plus or minus inhibitor in 2% DMSO. Assays were carried out for 60 minutes at 30° C. before stopping the reaction by the addition of an equal volume of 75 mM aqueous phosphoric acid. Samples were then spotted onto a p81 filterplate (Whatman) and a vacuum applied. Wells were washed 3 times with 200 μL of dilute aqueous phosphoric acid before the addition of 50 μL Microscint 40 per well. Incorporation of radioactivity was determined on a Topcount microplate scintillation counter (Packard).

glycogen synthase = experiment: Glycogen synthase activation in mouse adipocytes; assay type: cell-based; conditions: for Max FI (% to LiCl): maximum fold induction normalised to 40 mM LiCl
Protocol: 3T3-L1 mouse pre-adipocytes were grown in DMEM medium supplemented with 10% foetal calf serum (FCS) and penicillin/streptomycin until fully confluent. Cell differentiation was initiated by the addition of 0.5 mM IBMX (2-isobutyl-1-methylxanthine), 0.25 μM dexamethasone and 1 μg/mL insulin into the growth media. The differentiation medium was replaced after 4 days and 7 days. After the initiation of differentiation the cells were grown for an additional 3 days in DMEM, 10% FCS and antibiotics.
HEK293 cells, mouse adipocytes or rat myotubes were treated in 10-cm Petri dishes with different concentrations of GSK3 inhibitor example compounds for 90 minutes. At the end of the treatment period the cells were washed and scraped in ice cold PBS buffer supplemented with 20 mM NaF. The cells were pelleted by centrifugation and lysed in 300 μL buffer (50 mM.HEPES pH 7.5, 10 mM EDTA, 100 mM NaF, 5 mM DTT, protease inhibitor cocktail (Sigma)). After incubation for 30 min on ice the samples were cleared by centrifugation. The activity of glycogen synthase was determined in the soluble fraction at two different concentrations of […]—low (0.1 mM) and high (10 mM). The reaction was carried out for 30 min (buffer: 50 mM Tris pH 7.8, 20 mM EDTA, 25 mM NaF, 5 mM DTT). The reaction mixture (total volume of 90 μL) contained 1% glycogen, 0.3 mM UDP-glucose and 0.06 μCi ^14C-UDP-glucose. Reaction was stopped by transfer of 70 μL to a GFC 96-well filter plate, containing 140 μL 100% ethanol and the glycogen was allowed to precipitate for 1 h at 4° C. The wells were washed 2 times with 200 μL 66% ethanol and than allowed to dry. Subsequently, 100 μL of scintillation liquid was added, and plates were sealed and counted in a Packard Topcounter. Glycogen synthase activation was calculated as the ratio between the incorporation of labelled ^14C-UDP-glucose in glycogen at low and high concentration of […] (fractional velocity).
The ability of GSK3 inhibitors to activate glycogen synthase was determined in HEK293 cells, mouse adipocytes and rat myotubed. The compounds tested activated glycogen synthase in all three cellular systems with EC50 values in the sub-micromolar to low micromolar concentration range. Most of them exceeded the stimulation induced by 40 mM LiCl (the highest compound concentration used in the assay was 20 μM).

T1 sequence (P49841 whole entry): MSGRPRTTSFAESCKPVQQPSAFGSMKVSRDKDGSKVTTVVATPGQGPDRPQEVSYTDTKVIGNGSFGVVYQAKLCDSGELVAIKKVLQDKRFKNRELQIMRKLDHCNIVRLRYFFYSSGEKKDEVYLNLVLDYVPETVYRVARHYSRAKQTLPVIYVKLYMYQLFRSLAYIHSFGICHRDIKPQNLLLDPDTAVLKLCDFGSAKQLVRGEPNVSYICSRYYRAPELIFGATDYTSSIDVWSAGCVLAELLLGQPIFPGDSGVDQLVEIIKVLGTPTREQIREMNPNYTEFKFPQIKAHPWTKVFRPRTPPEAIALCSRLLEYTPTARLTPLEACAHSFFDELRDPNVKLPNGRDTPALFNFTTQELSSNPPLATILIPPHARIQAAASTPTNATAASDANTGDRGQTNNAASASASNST
T2 sequence (P49840 whole entry): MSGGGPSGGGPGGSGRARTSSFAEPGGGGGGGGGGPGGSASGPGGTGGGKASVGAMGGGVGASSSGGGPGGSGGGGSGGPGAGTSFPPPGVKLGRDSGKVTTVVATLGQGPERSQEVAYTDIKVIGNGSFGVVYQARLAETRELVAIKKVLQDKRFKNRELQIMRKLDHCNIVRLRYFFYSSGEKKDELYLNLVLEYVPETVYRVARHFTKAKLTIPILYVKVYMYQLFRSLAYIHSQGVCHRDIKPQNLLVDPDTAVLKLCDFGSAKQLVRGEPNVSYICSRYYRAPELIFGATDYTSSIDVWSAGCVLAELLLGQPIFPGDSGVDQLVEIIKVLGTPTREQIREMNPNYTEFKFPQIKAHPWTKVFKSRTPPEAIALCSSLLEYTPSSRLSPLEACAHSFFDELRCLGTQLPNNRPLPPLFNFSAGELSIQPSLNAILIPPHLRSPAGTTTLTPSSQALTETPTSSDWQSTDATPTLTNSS
CDK9/cyclin T1, sequence (P50750 whole entry, species assumed): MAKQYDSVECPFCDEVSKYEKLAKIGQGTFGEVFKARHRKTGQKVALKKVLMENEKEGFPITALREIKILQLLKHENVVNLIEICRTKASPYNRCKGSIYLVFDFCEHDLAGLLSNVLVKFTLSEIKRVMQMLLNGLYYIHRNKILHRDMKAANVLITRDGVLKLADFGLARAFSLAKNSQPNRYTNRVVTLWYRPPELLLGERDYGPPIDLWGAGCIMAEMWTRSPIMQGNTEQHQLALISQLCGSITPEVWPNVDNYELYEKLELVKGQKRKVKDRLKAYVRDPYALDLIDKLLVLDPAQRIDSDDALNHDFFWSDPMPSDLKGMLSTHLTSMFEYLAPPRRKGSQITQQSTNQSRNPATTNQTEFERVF
CDK9/cyclin T1, sequence (O60563 whole entry partner, species assumed): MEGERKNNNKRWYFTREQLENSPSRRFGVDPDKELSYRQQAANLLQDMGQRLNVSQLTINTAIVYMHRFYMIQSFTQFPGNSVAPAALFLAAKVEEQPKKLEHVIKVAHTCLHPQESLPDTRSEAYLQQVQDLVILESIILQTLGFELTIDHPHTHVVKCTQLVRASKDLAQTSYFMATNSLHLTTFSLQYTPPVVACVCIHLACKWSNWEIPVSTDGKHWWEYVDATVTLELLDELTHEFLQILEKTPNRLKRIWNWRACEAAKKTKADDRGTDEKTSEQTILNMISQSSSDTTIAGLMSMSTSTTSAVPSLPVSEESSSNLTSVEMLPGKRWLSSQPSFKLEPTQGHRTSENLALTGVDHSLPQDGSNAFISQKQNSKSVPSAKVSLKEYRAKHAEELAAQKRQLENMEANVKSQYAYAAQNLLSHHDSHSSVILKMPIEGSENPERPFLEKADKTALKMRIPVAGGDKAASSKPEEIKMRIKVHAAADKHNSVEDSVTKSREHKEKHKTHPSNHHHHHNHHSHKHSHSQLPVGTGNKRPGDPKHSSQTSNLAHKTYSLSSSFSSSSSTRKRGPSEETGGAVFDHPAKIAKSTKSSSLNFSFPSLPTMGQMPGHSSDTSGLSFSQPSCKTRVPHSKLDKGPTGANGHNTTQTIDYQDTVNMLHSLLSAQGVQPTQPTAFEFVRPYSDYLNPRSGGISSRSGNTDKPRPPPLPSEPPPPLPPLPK

Row | Ki (CDK9/cyclin T1) [nM] | IC50 (GSK3β) [nM] | IC50 (GSK3α) [nM] | IC50 (DYRK1A) [nM] | EC50 (glycogen synthase; Adipocyte) [nM] | Structure (SMILES) | Max FI (% to LiCl) (glycogen synthase) | EC50 (glycogen synthase) [nM]
1 | 5.7 | 3 | 2.4 | 77 | 148 ± 70 | CC(=O)Nc1cc(Nc2nccc(-c3sc(=O)n(C)c3C)n2)cc(C(F)(F)F)c1 [Compound 64, N-{3-[4-(3,4-Dimethyl-2-oxo-2,3-dihydro-thiazol-5-yl)-pyrimidin-2-ylamino]-5-trifluoromethyl-phenyl}-acetamide] | 143 % to LiCl | –
2 | 9.5 | 25 | 31 | 26 | 2190 ± 400 | Cc1c(-c2ccnc(Nc3cccc(S(=O)(=O)NCCO)c3)n2)sc(=O)n1C [Compound 75, 3-[4-(3,4-Dimethyl-2-oxo-2,3-dihydro-thiazol-5-yl)-pyrimidin-2-ylamino]-N-(2-hydroxy-ethyl)-benzenesulfonamide] | 181 % to LiCl | –
3 | 4.8 | 23 | 17.8 | 19 | 4830 ± 4600 | COCCNS(=O)(=O)c1cccc(Nc2nccc(-c3sc(=O)n(C)c3C)n2)c1 [Compound 67, 3-[4-(3,4-Dimethyl-2-oxo-2,3-dihydro-thiazol-5-yl)-pyrimidin-2-ylamino]-N-(2-methoxy-ethyl)-benzenesulfonamide] | 177 % to LiCl | –
4 | 4.8 | 22 | 27 | 51 | 432 ± 179 | CCNS(=O)(=O)c1cccc(Nc2nccc(-c3sc(=O)n(C)c3C)n2)c1 [Compound 62, 3-[4-(3,4-Dimethyl-2-oxo-2,3-dihydro-thiazol-5-yl)-pyrimidin-2-ylamino]-N-ethyl-benzenesulfonamide] | 234 % to LiCl | –
5 | 140 | 61 | 136 | 73 | 9550 ± 7400 | Cc1c(-c2ccnc(Nc3cc(Br)cc(C(F)(F)F)c3)n2)sc(=O)n1C [Compound 68, 5-[2-(3-Bromo-5-trifluoromethyl-phenylamino)-pyrimidin-4-yl]-3,4-dimethyl-3H-thiazol-2-one] | 50 % to LiCl | –

Row | Structure (SMILES) | Ki (CDK9/cyclin T1) [nM] | IC50 (GSK3β) [nM] | IC50 (GSK3α) [nM] | IC50 (DYRK1A) [nM] | EC50 (glycogen synthase; Adipocyte) [nM] | Max FI (% to LiCl) (glycogen synthase) | EC50 (glycogen synthase) [nM]
6 | CNc1cc(Nc2nccc(-c3sc(=O)n(C)c3C)n2)cc(C(F)(F)F)c1 [Compound 76, 3,4-Dimethyl-5-[2-(3-methylamino-5-trifluoromethyl-phenylamino)-pyrimidin-4-yl]-3H-thiazol-2-one] | 21 | 18.9 | 42 | 148 | – | 196 % to LiCl | 1110 ± 530
